Measured values as given in patent US10206906B2, “Synergistic combination of a phenolic-rich maple syrup extract and an antibiotic” (priority 2015, dated 2019).
Converted amounts (≈) assume the structure as drawn.

Experiments:
P. aeruginosa PAO1 [1] = assay: Bacterial colony forming ability (CFU counts after exposure); assay type: cell-based, Pseudomonas aeruginosa; details: log decrease vs untreated control; 4 × MIC, 10 min; CTAB 10 μM
Description: (§1) The BacLight kit (L-13152, Invitrogen™, Life Technologies Inc., Canada) is used to assess cell membrane damage. Overnight bacterial cultures are diluted 1:40 in fresh MHBII broth to a final volume of 5 mL, grown to an OD600 of 0.5-0.6, washed with filter-sterilized 10 mM phosphate buffered saline (PBS, pH 7.0) and resuspended in 1/10 of the original volume. […] Cultures are incubated at room temperature (21±2° C.) on a tube rocker for 10 min. At the end of the incubation period, an aliquot is taken for CFU counts and the remaining suspension is washed with 10 mM PBS and resuspended to an OD600) of 0.3. An aliquot (100 μL) of each bacterial suspension is removed and added to a 96-well, black, clear-bottom plate (Corning™, Fisher Scientific, ON, Canada) along with an equal volume of the BacLight™ reagent (2× stock solution, L13152, Invitrogen™, Life Technologies Inc., Canada) and the plates are incubated for 10 min at room temperature in the dark. At the end of the incubation period, fluorescence intensity is recorded for both kit components, SYTO-9 (ex/em 485/530 nm) and propidium iodide (ex/em 485/645 nm), using the microplate reader. Fluorescence readings from samples are normalized to the values obtained from untreated control to determine the ratio of membrane compromised cells to cells with intact membrane. Cetyltrimethylammonium bromide (CTAB, Sigma-Aldrich Canada), a cationic detergent that is known to cause membrane damage, is used at concentration of 10 μM as a positive control for membrane disruption.

P. aeruginosa PA14 [2] = assay: as above; assay type: cell-based, Pseudomonas aeruginosa; details: log decrease vs untreated control; 4 × MIC, 10 min; CTAB 10 μM
Description: as §1

[3] = tested on: cell membrane of P. mirabilis HI4320; assay: BacLight membrane integrity assay; assay type: cell-based, Proteus mirabilis; details: PRMSE, catechol at 4 × MIC for 10 min; CTAB 10 μM; untreated = 100
Description: as §1, with “Cetyltrimethylammonium bromide (CTAB, Sigma-Aldrich Canada), a cationic detergent that is known to cause membrane damage, is used at concentration of 10 μM as a positive control for membrane disruption.” left out

[4] = tested on: cell membrane of P. aeruginosa PA14; assay: BacLight membrane integrity assay; assay type: cell-based, Pseudomonas aeruginosa; details: PRMSE, catechol at 4 × MIC for 10 min; CTAB 10 μM; untreated = 100
Description: as §1

[5] = tested on: cell membrane of P. aeruginosa PAO1; assay: BacLight membrane integrity assay; assay type: cell-based, Pseudomonas aeruginosa; details: PRMSE, catechol at 4 × MIC for 10 min; CTAB 10 μM; untreated = 100
Description: as §1

E. coli CFT073 = assay: Bacterial colony forming ability (CFU counts after exposure); assay type: cell-based, Escherichia coli; details: log decrease vs untreated control; 4 × MIC, 10 min; CTAB 10 μM
Description: as §1

[6] = tested on: cell membrane of E. coli CFT073; assay: BacLight membrane integrity assay; assay type: cell-based, Escherichia coli; details: PRMSE, catechol at 4 × MIC for 10 min; CTAB 10 μM; untreated = 100
Description: as §1, with “Cetyltrimethylammonium bromide (CTAB, Sigma-Aldrich Canada), a cationic detergent that is known to cause membrane damage, is used at concentration of 10 μM as a positive control for membrane disruption.” left out

P. mirabilis HI4320 = assay: Bacterial colony forming ability (CFU counts after exposure); assay type: cell-based, Proteus mirabilis; details: log decrease vs untreated control; 4 × MIC, 10 min; CTAB 10 μM
Description: as §1

P. aeruginosa PAO1 [7] = assay: Determination of minimum inhibitory concentration (MIC); assay type: cell-based; details: Pseudomonas aeruginosa, PAO1; antibiotic alone; MHB-II, 37° C., 18 h; read-out: MIC
Description: (§2) A range of concentration of antibiotics, ciprofloxacin (0.0003-0.25 μg mL^−1) and carbenicillin (0.5-512 μg mL^−1), are chosen due to their known potency against all four bacterial strains. Dilutions are prepared in flat bottom, 96 well microtitre plates (Falcon™, Corning™, Fisher Scientific, ON, Canada). Each well of a microtitre plate is then inoculated with the desired bacterial strain (grown in MHB-II and diluted to […]) and the plate is incubated at 37° C. for 18 h under static conditions. Bacterial growth is assessed by (i) monitoring the optical density of the cell suspension in each well at 600 nm (OD600 nm), and (ii) the resazurin microtitre plate assay. In the resazurin microtitre plate assay, each well of a microtitre plate is supplemented with 20 μM resazurin, incubated in the dark for 20 min at room temperature, followed by fluorescence measurements at ex/em 570/590 nm using a TECAN Infinite M200 Pro microplate reader (Tecan Group Ltd., Switzerland). The lowest concentration of a compound able to prevent increase in OD600 nm and resazurin fluorescence intensity is recorded as the MIC for that compound.

P. aeruginosa PA14 [8] = assay: as above; assay type: cell-based; details: Pseudomonas aeruginosa, PA14; antibiotic alone; MHB-II, 37° C., 18 h; read-out: MIC
Description: as §2

P. aeruginosa PAO1 [9] = assay: Checkerboard microdilution assay (growth inhibition synergy); assay type: cell-based, Pseudomonas aeruginosa; details: carbenicillin/PRMSE combination; FIC of the labelled component
Description: (§3) The checkerboard microdilution assay is used for evaluation of in vitro antimicrobial synergy between two compounds (i.e., antibiotic/PRMSE, antibiotic/pure phenolic compound, and pure phenolic compounds with each other). Two-fold serial dilutions are prepared in MHB-II for each of the two compounds under study. The serial dilutions are then loaded into 96 well plates to achieve combinations having different concentrations of each of the two compounds. Each well is subsequently inoculated with 10^6 CFU mL^−1 of the desired bacterial strain and incubated at 37° C. for 18 h under static conditions. The Fractional Inhibitory Concentration Index (FICI) for each combination is calculated by using the following formula: FICcomponent 1=MICcomponent 1, in combination/MICcomponent 1,alone FICI=FICcomponent 1+FICcomponent 2
(§4) The FICIs are interpreted as follows: FICI of […] (synergy); 0.5<FICI ≤1 (no interaction/indifference); FICI of >4 (antagonism).

P. aeruginosa PA14 [10] = assay: as above; assay type: cell-based, Pseudomonas aeruginosa; details: carbenicillin/PRMSE combination; FIC of the labelled component
Description: as §3, §4

[11] = tested on: outer membrane of P. aeruginosa PAO1; assay: Outer membrane permeabilization, NPN uptake assay; assay type: cell-based, Pseudomonas aeruginosa; details: positive control gentamicin, above and below MICs
Description: (§5) The cells are harvested, washed with 5 mM HEPES buffer (pH 7.2), and resuspended in the same volume (10 mL) of 5 mM HEPES buffer (pH 7.2) containing 1 mM N-ethylmaleimide (NEM, Sigma-Aldrich Canada). Aliquots (1 mL) are mixed with NPN to a final concentration of 10 μM (in cell suspension) and fluorescence is measured using the microplate reader (ex/em 350/420 nm).

[12] = tested on: outer membrane of P. aeruginosa PA14; assay: Outer membrane permeabilization, NPN uptake assay; assay type: cell-based, Pseudomonas aeruginosa; details: positive control gentamicin, above and below MICs
Description: as §5

[13] = tested on: outer membrane of E. coli CFT073; assay: Outer membrane permeabilization, NPN uptake assay; assay type: cell-based, Escherichia coli; details: positive control gentamicin, above and below MICs
Description: as §5

[14] = tested on: outer membrane of P. mirabilis HI4320; assay: Outer membrane permeabilization, NPN uptake assay; assay type: cell-based, Proteus mirabilis; details: positive control gentamicin, above and below MICs
Description: as §5

With `CCCCCCCCCCCCCCCC[N+](C)(C)C.[Br-]` [CTAB, cetyltrimethyl-ammonium bromide, reference compound] the “Bacterial colony forming ability (Δ log CFU mL^−1)” value (P. aeruginosa PAO1 [1]) was 5.1 Δ log CFU mL^−1, the “Bacterial colony forming ability (Δ log CFU mL^−1)” value (P. aeruginosa PA14 [2]) was 4.9 Δ log CFU mL^−1 and the “% cells with uncompromised membrane” value [3] was 0%. The “% cells with uncompromised membrane” value [4] was 0%, the “% cells with uncompromised membrane” value [5] was 0% and the “Bacterial colony forming ability (Δ log CFU mL^−1)” value (E. coli CFT073) was 5.7 Δ log CFU mL^−1. The “% cells with uncompromised membrane (BacLight assay)” value [6] was 0% and the “Bacterial colony forming ability (Δ log CFU mL^−1)” value (P. mirabilis HI4320) was 4.5 Δ log CFU mL^−1.
`CC1(C)S[C@@H]2[C@H](NC(=O)C(C(=O)O)c3ccccc3)C(=O)N2[C@H]1C(=O)O` (stereo partly shown) [carbenicillin, reference compound] gave an MIC (P. aeruginosa PAO1 [7]) of 64 mg/L (≈ 169 µM), an MIC (P. aeruginosa PA14 [8]) of 128 mg/L (≈ 338 µM) and an FIC (P. aeruginosa PAO1 [9]) of 0.13. The FIC (P. aeruginosa PA14 [10]) was 0.063.
For gentamicin [reference compound], the Minimum permeabilization concentration [11] was 1 µg/mL, the Minimum permeabilization concentration [12] was 1 µg/mL and the “Minimum permeabilization concentration (NPN assay)” value [13] was 0.006 µg/mL. It also gave a Minimum permeabilization concentration [14] of 0.013 µg/mL.
